The subject of the assay is T-47D. Nature of the assay: Caspase cascade activation assay (Ac-DEVD-R110 fluorogenic substrate) in T-47D cells. To be noted: 24 h incubation; for Caspase activity (Ratio): ratio of net RFU (T=3 h) of test compound to control, 0.16 to 10 μM final; for EC50: sigmoidal dose-response, read-out: Caspase potency EC50. It is filed as cell-based, Human. The protocol:
Human breast cancer cell lines T-47D was grown according to media component mixtures designated by American Type Culture Collection+10% FCS (Invitrogen Corporation), in a 5% CO2-95% humidity incubator at 37° C. T-47D and ZR-75-1 cells were maintained at a cell density between 30 and 80% confluency and for HL-60 at a cell density of 0.1 to 0.6×10^6 cells/mL. Cells were harvested at 600×g and resuspended at 0.65×10^6 cells/mL into appropriate media+10% FCS. An aliquot of 45 μL of cells was added to a well of a 96-well microtiter plate containing 5 μL of a 10% DMSO in RPMI-1640 media solution containing 1.6 to 100 μM of N-(2-methylphenyl)-9-oxo-9H-fluorene-1-carboxamide or other test compound (0.16 to 10 μM final). An aliquot of 45 μL of cells was added to a well of a 96-well microtiter plate containing 5 μL of a 10% DMSO in RPMI-1640 media solution without test compound as the control sample. The samples were mixed by agitation and then incubated at 37° C. for 24 h in a 5% CO2-95% humidity incubator. After incubation, the samples were removed from the incubator and 50 μL of a solution containing 20 μM of N—(Ac-DEVD)-N′-ethoxycarbonyl-R110 fluorogenic substrate (SEQ ID NO:1) (Cytovia, Inc.; U.S. Pat. No. 6,335,429), 20% sucrose (Sigma), 20 mM DTT (Sigma), 200 mM NaCl (Sigma), 40 mM Na PIPES buffer pH 7.2 (Sigma), and 500 μg/mL lysolecithin (Calbiochem) was added. The samples were mixed by agitation and incubated at room temperature. Using a fluorescent plate reader (Model 1420 Wallac Instruments), an initial reading (T=0) was made about 1-2 min after addition of the substrate solution, employing excitation at 485 nm and emission at 530 nm, to determine the background fluorescence of the control sample. After about 3 h of incubation, the samples were read for fluorescence as above (T=3 h).
The Relative Fluorescence Unit values (RFU) were used to calculate the sample readings as follows: RFU(T=3h)−Control RFU(T=0)=Net RFU(T=3h)
The activity of caspase cascade activation was determined by the ratio of the net RFU value for N-(2-methylphenyl)-9-oxo-9H-fluorene-1-carboxamide and other test compounds to that of control samples. The EC50 (nM) was determined by a sigmoidal dose-response calculation (Prism 2.0, GraphPad Software Inc.).

Molecules are shown by their SMILES. Where two headings read alike, the source gives them in different places.

As a reminder, the EC50 is the concentration needed to bring the measured effect to its halfway point.

For `Nc1ccccc1NC(=O)c1cccc2c1C(=O)c1ccccc1-2` [Example 26, N-(2-Amino-phenyl)-9-oxo-9H-fluorene-1-carboxamide], the “Caspase activity (Ratio)” value was 1.2. For the same compound, the EC50 (Homo sapiens, T47D, 24 h) is over 10 µM.

Take `O=C(Nc1cccc2ccccc12)c1cccc2c1C(=O)c1ccccc1-2` [N-(1-Naphthalen-1-yl)-9-oxo-9H-fluorene-1-carboxamide]: the “Caspase activity (Ratio)” value was 3.2 and the EC50 worked out at 6 µM.

`O=C(Nc1ccccc1-n1cccn1)c1cccc2c1OCC2` [Example 19, N-(2-(1H-pyrazol-1-yl)phenyl)-2,3-dihydrobenzofuran-7-carboxamide]: the “Caspase activity (Ratio)” value is listed as 0.9. Further, the EC50 (Homo sapiens, T47D, 24 h) was over 10 µM.

On to `O=C(Nc1ccccc1-n1cccn1)c1ccc([N+](=O)[O-])c2c1C(=O)c1cc([N+](=O)[O-])ccc1-2` [Example 31, 4,7-Dinitro-N-(2-(1H-pyrazol-1-yl)phenyl)-9-oxo-9H-fluorene-1-carboxamide], for which the “Caspase activity (Ratio)” value was determined as 2.3. Besides, the EC50 (Homo sapiens, T47D, 24 h) came out at 6.05 µM.

`O=C(Nc1ccccc1)c1cccc2c1C(=O)c1ccccc1-2` [Example 6, 9-Oxo-N-phenyl-9H-fluorene-1-carboxamide]: the “Caspase activity (Ratio)” value is recorded as 1.9. The EC50 (Homo sapiens, T47D, 24 h) was over 10 µM.

Consider `O=C(Nc1ccccc1-n1cccn1)c1cccc2oc3ccccc3c12` [Example 23, N-(2-(1H-pyrazol-1-yl)phenyl)-dibenzofuran-1-carboxamide], for which the “Caspase activity (Ratio)” value amounted to 1.1. The EC50 (Homo sapiens, T47D, 24 h) is over 10 µM.

As for `O=C(Nc1ccccc1OC(F)F)c1cccc2c1C(=O)c1ccccc1-2` [N-(2-Difluoromethoxyphenyl)-9-oxo-9H-fluorene-1-carboxamide], the “Caspase activity (Ratio)” value was found to be 5.9. Further, under “Homo sapiens, T47D, 24 h”, the concentration for a half-maximal effect (EC50) was 0.688 µM.

As to `Cc1ccncc1NC(=O)c1cccc2c1C(=O)c1ccccc1-2` [Example 21, N-(4-Methylpyridin-3-yl)-9-oxo-9H-fluorene-1-carboxamide], the “Caspase activity (Ratio)” value is given as 0.8. Further, the half-maximal effective concentration (EC50) (Homo sapiens, T47D, 24 h) was over 10 µM.

In the case of `O=C(Nc1ccccc1O)c1cccc2c1C(=O)c1ccccc1-2` [Example 35, N-(2-Hydroxy-phenyl)-9-oxo-9H-fluorene-1-carboxamide], the “Caspase activity (Ratio)” value is 1.3. Further, for the setting “Homo sapiens, T47D, 24 h”, the EC50 is over 10 µM.

For the compound `O=C(Nc1ccccc1-n1cccn1)c1cccc2c3c([nH]c12)CCCC3` [Example 16, N-(2-(1H-pyrazol-1-yl)phenyl)-6,7,8,9-tetrahydro-5H-carbazole-1-carboxamide], the “Caspase activity (Ratio)” value came to 0.8. Moreover, the EC50 (Homo sapiens, T47D, 24 h) was over 10 µM.

Regarding `O=C(Nc1ccccn1)c1cccc2c1C(=O)c1ccccc1-2` [Example 5, 9-Oxo-N-(pyridin-2-yl)-9H-fluorene-1-carboxamide], the “Caspase activity (Ratio)” value came to 1.2. For the same compound, the EC50 (Homo sapiens, T47D, 24 h) was over 10 µM.

Take `CC1CCCCC1NC(=O)c1cccc2c1C(=O)c1ccccc1-2` (stereo not shown) [Example 18, N-(2-Methylcyclohexyl)-9-oxo-9H-fluorene-1-carboxamide]: the “Caspase activity (Ratio)” value came out at 1.8. For the same compound, the concentration giving a half-maximal response (EC50) (Homo sapiens, T47D, 24 h) is over 10 µM.

As to `N#Cc1ccccc1NC(=O)c1cccc2c1C(=O)c1ccccc1-2` [N-(2-Cyanophenyl)-9-oxo-9H-fluorene-1-carboxamide], the “Caspase activity (Ratio)” value was determined as 2.3. For the setting “Homo sapiens, T47D, 24 h”, the EC50 stood at 2 µM.

Turning to `O=C(Nc1ccccc1N1CCOCC1)c1cccc2c1C(=O)c1ccccc1-2` [Example 1, N-(2-Morpholinophenyl)-9-oxo-9H-fluorene-1-carboxamide], the “Caspase activity (Ratio)” value is 3.1. Moreover, the EC50 (Homo sapiens, T47D, 24 h) was 5.67 µM.

Consider `CN(C)Cc1ccccc1NC(=O)c1cccc2c1C(=O)c1ccccc1-2.Cl` [Example 24, N-(2-Dimethylaminomethyl-phenyl)-9-oxo-9H-fluorene-1-carboxamide Hydrochloride], for which the “Caspase activity (Ratio)” value is given as 1.8. Moreover, the EC50 (Hydrochloride) was over 10 µM.

Turning to `Cc1cccnc1NC(=O)c1cccc2c1C(=O)c1ccccc1-2` [Example 11, N-(3-Methylpyridin-2-yl)-9-Oxo-9H-fluorene-1-carboxamide], the “Caspase activity (Ratio)” value turned out to be 1.2. In addition, the EC50 (Homo sapiens, T47D, 24 h) is over 10 µM.

Consider `COc1ccc(NC(=O)c2cccc3c2C(=O)c2ccccc2-3)cc1` [N-(4-Methoxyphenyl)-9-oxo-9H-fluorene-1-carboxamide], for which the “Caspase activity (Ratio)” value came to 1.8. In addition, for the setting “Homo sapiens, T47D, 24 h”, the EC50 was over 10 µM.

As to `O=C(Nc1ccccc1-n1cccn1)c1cccc2c1-c1ccccc1S2(=O)=O` [Example 33, 9,9-Dioxo-N-(2-(1H-pyrazol-1-yl)phenyl)-dibenzothiophene-1-carboxamide], the “Caspase activity (Ratio)” value is 1.6 and the 50% effective concentration (EC50) is over 10 µM.

`COC(=O)c1ccccc1NC(=O)c1cccc2c1C(=O)c1ccccc1-2` [N-(2-(Methoxycarbonyl)phenyl)-9-oxo-9H-fluorene-1-carboxamide]: the “Caspase activity (Ratio)” value is 7.1. In addition, the EC50 (Homo sapiens, T47D, 24 h) is 0.419 µM.

On to `O=C(Nc1ccccc1-n1ccnc1)c1cccc2c1C(=O)c1ccccc1-2` [Example 4, N-(2-(1H-Imidazol-1-yl)-phenyl)-9-oxo-9H-fluorene-1-carboxamide], for which the “Caspase activity (Ratio)” value was found to be 1.4. Further, the EC50 (Homo sapiens, T47D, 24 h) is over 10 µM.

On to `O=C(Nc1ccccc1N1CCCCC1)c1cccc2c1C(=O)c1ccccc1-2` [Example 3, 9-Oxo-N-(2-(piperidin-1-yl)-phenyl)-9H-fluorene-1-carboxamide], for which the “Caspase activity (Ratio)” value was found to be 7.4. In addition, the half-maximal effective concentration (EC50) (Homo sapiens, T47D, 24 h) was 1.92 µM.

On to `O=C(Nc1ccccc1F)c1cccc2c1C(=O)c1ccccc1-2` [N-(2-Fluorophenyl)-9-oxo-9H-fluorene-1-carboxamide], for which the “Caspase activity (Ratio)” value came to 5.7. For the setting “Homo sapiens, T47D, 24 h”, the EC50 was determined as 1.96 µM.

Consider `Cc1ccc(NC(=O)c2cccc3c2C(=O)c2ccccc2-3)cc1` [N-(4-Methylphenyl)-9-oxo-9H-fluorene-1-carboxamide], for which the “Caspase activity (Ratio)” value was determined as 1.4. Further, the EC50 (Homo sapiens, T47D, 24 h) was over 10 µM.

On to `CCOc1ccccc1NC(=O)c1cccc2c1C(=O)c1ccccc1-2` [N-(2-Ethoxyphenyl)-9-oxo-9H-fluorene-1-carboxamide], for which the “Caspase activity (Ratio)” value is listed as 8.2. Besides, the EC50 (Homo sapiens, T47D, 24 h) stood at 2.07 µM.

As for `O=C(Nc1ccccc1Br)c1cccc2c1C(=O)c1ccccc1-2` [N-(2-Bromophenyl)-9-oxo-9H-fluorene-1-carboxamide], the “Caspase activity (Ratio)” value turned out to be 9.1. Besides, the EC50 (Homo sapiens, T47D, 24 h) was 3.52 µM.

For `O=C(Nc1ccccc1[N+](=O)[O-])c1cccc2c1C(=O)c1ccccc1-2` [Example 25, N-(2-Nitrophenyl)-9-oxo-9H-fluorene-1-carboxamide], the “Caspase activity (Ratio)” value was 2.2. The concentration giving a half-maximal response (EC50) (Homo sapiens, T47D, 24 h) is 2.51 µM.

For `O=C(Nc1ccccc1Cl)c1cccc2c1C(=O)c1ccccc1-2` [N-(2-Cholorophenyl)-9-oxo-9H-fluorene-1-carboxamide], the “Caspase activity (Ratio)” value is 7.4 and the EC50 worked out at 1.05 µM.

As to `O=C(Nc1ccccc1-c1nnn[nH]1)c1cccc2c1C(=O)c1ccccc1-2` [Example 8, N-(2-(1H-tetrazol-5-yl)phenyl)-9-oxo-9H-fluorene-1-carboxamide], the “Caspase activity (Ratio)” value turned out to be 1.1. Further, the EC50 (Homo sapiens, T47D, 24 h) is over 10 µM.

Regarding `Cc1ccccc1NC(=O)c1cccc2c1C(O)c1ccccc1-2` (stereo not shown) [Example 36, 9-Hydroxy-N-(2-methylphenyl)-9H-fluorene-1-carboxamide], the “Caspase activity (Ratio)” value is 3.3. The EC50 (Homo sapiens, T47D, 24 h) was determined as 3.7 µM.

The values above are taken from US20080096848A1, “Substituted N-Aryl-9-Oxo-9H-Fluorene-1-Carboxamides and Analogs as Activators of Caspases and Inducers of Apoptosis” (CYTOVIA INC., priority 2004, published 2008).
